According to US10144715B2, “Piperazine derivatives as liver X receptor modulators” (priority 2014, dated 2018):
Where two headings read alike, the source gives them in different places.

Experiments:
[1] = target: LXR α LBD protein (Homo sapiens (Human), UniProt Q13133); assay: LXR α radioligand binding assay (SPA, competition with [3H]TO901317); details: read-out: LXRα Binding Ki
[2] = target: Gal4 DNA binding domain fused to the LBD of LXRα in HEK293 cells (Homo sapiens (Human), UniProt Q13133); assay: LXR luciferase transcriptional reporter gene assay, agonist mode, LXRα; type: cell-based; details: for EC50: read-out: Cell LXRα EC50
[3] = target: Gal4 DNA binding domain fused to the LBD of LXRβ in HEK293 cells (Homo sapiens (Human), UniProt P55055); assay: cell-based
[4] = target: LXR β LBD protein (Homo sapiens (Human), UniProt P55055); assay: biochemical; type: binding
[5] = agonist mode, read-out: Cell LXRβ EC50
[6] = Biological Test Example 2, agonist mode
[7] = Biological Test Example 1, read-out: LXRβ Binding Ki

Chain of Gal4 DNA binding domain fused to the LBD of LXRα in HEK293 cells (Q13133 209-447): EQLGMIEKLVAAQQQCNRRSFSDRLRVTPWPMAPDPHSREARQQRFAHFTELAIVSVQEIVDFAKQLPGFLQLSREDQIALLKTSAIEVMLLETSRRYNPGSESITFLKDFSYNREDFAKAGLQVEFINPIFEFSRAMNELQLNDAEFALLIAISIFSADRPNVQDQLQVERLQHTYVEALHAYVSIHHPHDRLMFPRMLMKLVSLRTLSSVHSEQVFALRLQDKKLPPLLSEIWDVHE
Chain of LXR α LBD protein (Q13133 209-447): as above
Chain of LXR β LBD protein (P55055 222-460 limits assumed): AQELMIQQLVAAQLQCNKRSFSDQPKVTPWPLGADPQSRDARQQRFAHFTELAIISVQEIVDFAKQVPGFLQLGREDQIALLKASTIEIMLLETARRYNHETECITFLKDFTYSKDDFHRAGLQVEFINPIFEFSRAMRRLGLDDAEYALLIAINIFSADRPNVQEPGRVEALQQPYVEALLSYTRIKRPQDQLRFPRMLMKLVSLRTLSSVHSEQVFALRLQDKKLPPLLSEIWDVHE
Chain of Gal4 DNA binding domain fused to the LBD of LXRβ in HEK293 cells (P55055 222-460 limits assumed): as above

| Structure (SMILES) | Ki [1] | Cell LXRα efficacy [2] | EC50 [2] | EC50 [3] | Cell LXRβ efficacy ([3]; agonist mode) | Ki ([4]; read-out: LXRβ Binding Ki) | EC50 ([2]; agonist mode) | Ki [4] | EC50 [3, 5] | Cell LXRβ efficacy [3, 6] | EC50 ([3]; Biological Test Example 2, agonist mode, read-out: Cell LXRβ EC50) | Ki [4, 7] | EC50 [2, 6] | Cell LXRβ efficacy [3] |
| --- | --- | --- | --- | --- | --- | --- | --- | --- | --- | --- | --- | --- | --- | --- |
| CC(C)[C@@H]1CN(c2ccc(C#N)c(S(C)(=O)=O)c2)CCN1c1ncc([C@@H](C)O)c(C(F)(F)F)n1 (single isomer, unassigned) [12-4] | 1450 nM | 4457 (58) % | 4460 nM | 652 nM | 652 (50) % | 111 nM |  |  |  |  |  |  |  |  |
| CC(C)[C@@H]1CN(c2ccc(C#N)c(S(C)(=O)=O)c2)CCN1c1ncc([C@H](C)O)c(C(F)(F)F)n1 (single isomer, unassigned) [12-5] | 1180 nM | 1481 (22) % | 1480 nM | 521 nM | 521 (40) % | 80 nM |  |  |  |  |  |  |  |  |
| CC[C@H](O)c1cnc(N2CCN(c3ccc(F)c(S(C)(=O)=O)c3)C[C@H]2C(C)C)nc1C(F)(F)F (single isomer, unassigned) [12-6] | 266 nM | 2429 (43) % |  | 289 nM | 289 (29) % | 22 nM | 2430 nM |  |  |  |  |  |  |  |
| C[C@](O)(c1ccc(CN2CCN(c3cccc(S(C)(=O)=O)c3)C[C@@H]2c2ccccc2)cc1)C(F)(F)F (single isomer, unassigned) [46-28] | 3650 nM | 4974 (24) % | 4970 nM | 1890 nM | 1885 (16) % |  |  | 501 nM |  |  |  |  |  |  |
| C[C@@](O)(c1ccc(CN2CCN(c3cccc(S(C)(=O)=O)c3)C[C@H]2c2ccccc2)cc1)C(F)(F)F (single isomer, unassigned) [46-30] | 1670 nM | 1787 (28) % | 1790 nM | 532 nM | 532 (12) % |  |  | 216 nM |  |  |  |  |  |  |
| CS(=O)(=O)c1cccc(N2CCN(C[C@H]3CC[C@@](C)(O)CC3)[C@H](c3ccccc3)C2)c1 (single isomer, unassigned) [48-6] | 30900 nM |  | > 20000 nM |  |  | > 2500 nM |  |  | > 20000 nM |  |  |  |  |  |
| NS(=O)(=O)c1cccc(N2CCN(C[C@H]3CC[C@H](C(F)F)CC3)[C@H](c3ccccc3)C2)c1 (single isomer, unassigned) [48-20] | 4670 nM |  | > 20000 nM |  | 6% | 1550 nM |  |  | 2270 nM |  |  |  |  |  |
| NS(=O)(=O)c1cccc(N2CCN(C[C@H]3CC[C@H](C(F)F)CC3)[C@@H](c3ccccc3)C2)c1 (single isomer, unassigned) [48-21] | 517 nM | 2703 (20) % | 2700 nM |  | 10% | 175 nM |  |  | 933 nM |  |  |  |  |  |
| NS(=O)(=O)c1cccc(N2CCN(C[C@H]3CC[C@@H](C(F)F)CC3)[C@H](c3ccccc3)C2)c1 (single isomer, unassigned) [48-22] | 1500 nM | 9061 (8) % | 9060 nM |  | 8% | 918 nM |  |  | 1190 nM |  |  |  |  |  |
| CS(=O)(=O)c1cc(N2CCN(C[C@H]3CC[C@H](C(F)(F)F)CC3)[C@H](c3ccccc3)C2)ccc1CO (single isomer, unassigned) [48-44] | 10800 nM | 11556 (50) % | 11600 nM |  | 34% | 972 nM |  |  | 3100 nM |  |  |  |  |  |
| CS(=O)(=O)c1cc(N2CCN(C[C@H]3CC[C@H](C(F)(F)F)CC3)[C@@H](c3ccccc3)C2)ccc1CO (single isomer, unassigned) [48-45] | 75 nM | 431 (65) % | 431 nM |  |  |  |  |  |  | 33% | 140 nM | 21 nM |  |  |
| CS(=O)(=O)c1cccc(N2CCN(CC3(F)CCN(CC(F)(F)F)CC3)[C@@H](c3ccccc3)C2)c1 (single isomer, unassigned) [48-53] | 2180 nM | 2169 (43) % |  | 711 nM |  |  |  |  |  | 711 (20) % |  | 259 nM | 2170 nM |  |
| CS(=O)(=O)c1cccc(N2CCN(CC3(F)CCN(CC(F)(F)F)CC3)[C@H](c3ccccc3)C2)c1 (single isomer, unassigned) [48-54] | > 3330 nM |  |  | > 20000 nM |  |  |  |  |  |  |  | 2390 nM | > 20000 nM |  |
| CS(=O)(=O)c1cccc(N2CCN(CC3CCN(CC(F)(F)F)CC3)[C@@H](c3ccccc3Cl)C2)c1 (single isomer, unassigned) [48-55] | 277 nM | 2129 (42) % | 2130 nM | 547 nM |  | 67 nM |  |  |  |  |  |  |  | 547 (19) % |
